Source: article PMC12040169 (PLOS Biology, 2025)

Assay: in vitro
Details: human, hela cells, % viability

SMILES	viability at 28.5 h, 10 µM [%]
Cc1ccc2c(CC(=O)N3CCC(C(=O)O)CC3)coc2c1 [CBK286711]	79.9
CC(=O)C1=C(O)C(=O)N(CC(=O)O)C1c1ccc(Br)cc1 (centres unmarked) [CBK286712]	89.9
Cc1cccc(C)c1NC(=O)CC(CN1CCN(Cc2c(C)noc2C)CC1)C(=O)O (centres unmarked) [CBK286715]	89.8
CCc1c(Cc2[nH]c(C)c(C(C)=O)c2C)[nH]c(C(=O)O)c1C [CBK286717]	91.3
CCC(C)C(NC(=O)Cc1c[nH]c2ccccc12)C(=O)O (centres unmarked) [CBK286720]	91
COc1ccccc1CNC(=O)N[C@@H](CC(C)C)C(=O)O [CBK286722]	92.9
COc1ccc(C(CNC(=O)C(=O)Nc2ccc(C(=O)O)cc2)N(C)C)cc1 (centres unmarked) [CBK286724]	119
CCC(C)[C@H](NC(=O)N1CCN(C(=O)c2cc3ccccc3[nH]2)CC1)C(=O)O (some centres unmarked) [CBK286725]	91
O=C(O)c1ccc(CNC2CC(=O)N(c3ccc(F)cc3)C2=O)cc1 (centres unmarked) [CBK286727]	95.3
COc1cc(/C=C/C(=O)NCc2ccc(C(=O)O)cc2)ccc1O [CBK286728]	86.4
CN1C(=O)NC(c2ccc(Br)cc2)C2=C1CN(c1cccc(C(=O)O)c1)C2=O (centres unmarked) [CBK286729]	84.3
C[C@H](NC(=O)C1CCN(C(=O)OC(C)(C)C)CC1)C(=O)O [CBK286730]	78.9
O=C(O)C[C@]1(C(=O)NC2CCCCCC2)CC(/C=C/c2ccccc2)=NO1 [CBK286732]	75.9
COc1cccc(NC(=O)CC(CN2CCN(Cc3ccccn3)CC2)C(=O)O)c1 (centres unmarked) [CBK286735]	85.1
COc1cc2c(cc1OC)C(c1ccc(C(=O)O)cc1)NCC2 (centres unmarked) [CBK286738]	90.2
O=C(O)C(c1c[nH]c2ccccc12)N1CCOCC1 (centres unmarked) [CBK286739]	83.8
CC(C)C[C@H](NC(=O)OC(C)(C)C)C(=O)N1CCC(C(=O)O)CC1 [CBK286742]	80.6
CSCC[C@H](NC(=O)Nc1ccc(N2CCC(C)CC2)cc1)C(=O)O [CBK286743]	86
CN1CCN(CC(CC(=O)Nc2ccccc2)C(=O)O)CC1 (centres unmarked) [CBK286746]	81.8
O=C(O)/C=C/C(=O)N1N=C(c2ccc(F)cc2)CC12C(=O)Nc1ccccc12 (centres unmarked) [CBK286747]	88.9
Cc1ccc(Oc2ccc(S(=O)(=O)N3CCOCC3)cc2C(=O)O)cc1 [CBK286748]	90.4
C[C@H](NC(=O)N1CCN(C(=O)CCCc2c[nH]c3ccccc23)CC1)C(=O)O [CBK286749]	88

SMILES	viability at 28.5 h, 10 µM [%]
CC(C)C[C@H](NC(=O)OC(C)(C)C)C(=O)NC[C@H]1CC[C@H](C(=O)O)CC1 [CBK286750]	85.9
COc1cc2oc(=O)c(CC(=O)N3CCCC(C(=O)O)C3)c(C)c2cc1Cl (centres unmarked) [CBK286754]	107
CC(C)COc1ccc(C(CC(=O)O)C(=O)O)cc1 (centres unmarked) [CBK286759]	103
CC1(C)SC2c3ccccc3C(=O)N2[C@@H]1C(=O)N1CCC(C(=O)O)CC1 (some centres unmarked) [CBK286760]	89.4
CC(C)(C)OC(=O)N1Cc2ccccc2C[C@H]1C(=O)N1CCC(C(=O)O)CC1 [CBK286761]	94.1
Cc1c(CCC(=O)N2CCCC(C(=O)O)C2)c(=O)oc2c(C)c(O)ccc12 (centres unmarked) [CBK286764]	88.5
O=C(O)[C@@H]1CCCN1C(=O)CCn1nnc2ccccc2c1=O [CBK286765]	83.6
CCC(CCC(=O)Nc1ccccc1Cl)C(=O)O (centres unmarked) [CBK286767]	86.8
CC(=O)NCC12CC3CC(C1)CC(C(=O)O)(C3)C2 [CBK286768]	93.8
COc1ccc(-c2ccc(=O)n(CC(=O)NC(C(=O)O)c3ccccc3)n2)c(F)c1 (centres unmarked) [CBK286769]	97.3
CC(C)[C@H](NC(=O)c1cc2cc(Cl)ccc2n1C)C(=O)N1CCC(C(=O)O)CC1 [CBK286771]	107
C[C@H](NC(=O)N1CCN(C(=O)CCc2c[nH]c3ccccc23)CC1)C(=O)O [CBK286774]	97.7
COc1ccc(-c2ccc(=O)n(CC(=O)NCc3ccc(C(=O)O)cc3)n2)c(F)c1 [CBK286776]	91.5
CSCC[C@H](NC(=O)c1cccc2c1-c1ccccc1C2=O)C(=O)O [CBK286781]	95.5
CN(C(=O)[C@H]1CCCC[C@H]1C(=O)O)C1CCS(=O)(=O)C1 (some centres unmarked) [CBK286782]	106
CN(C)CCCn1c(=O)n(CC(=O)O)c(=O)c2c3c(sc21)CCC3 [CBK286783]	110
CC(=O)C1=C(O)C(=O)N(CCCC(=O)O)C1c1ccc(Br)cc1 (centres unmarked) [CBK286784]	115
CC(C)(C)OC(=O)N1CCN(C(=O)N[C@@H](Cc2ccccc2)C(=O)O)CC1 [CBK286785]	113
O=C(CC(CN1CCCCC1)C(=O)O)Nc1cccc(O)c1 (centres unmarked) [CBK286788]	114
O=C(CC(CN1CCN(CCO)CC1)C(=O)O)Nc1ccccc1F (centres unmarked) [CBK286790]	86
O=C(O)c1ccc(N2CC(C(=O)Nc3ccc(F)cc3)CC2=O)cc1 (centres unmarked) [CBK286794]	85.3
CC1(C)CCCC2=C1CC(C(=O)O)C(C(=O)NCc1cccnc1)C2 (centres unmarked) [CBK286795]	83.3

SMILES	viability at 28.5 h, 10 µM [%]
CCCCC(NS(=O)(=O)Cc1ccccc1)C(=O)O (centres unmarked) [CBK286798]	91.1
Cc1ccc(CN(C(=O)/C=C/C(=O)O)C(C)(C)C)cc1 [CBK286799]	91.5
O=C(CC(CN1CCN(Cc2ccccn2)CC1)C(=O)O)Nc1ccc(F)cc1 (centres unmarked) [CBK286800]	86.8
COc1cccc(NC(=O)CC(CN2CCN(CCC#N)CC2)C(=O)O)c1 (centres unmarked) [CBK286801]	86.1
CC(=O)N1CCN(c2ccccc2NC(=O)Cc2ccccc2C(=O)O)CC1 [CBK286802]	87.6
Cn1c(=O)c2c(nc(N3CCN(c4cccc(Cl)c4)CC3)n2CC(=O)O)n(C)c1=O [CBK286803]	87.7
Cc1c(C(=O)O)sc2ncn(CCOc3ccc(Cl)cc3)c(=O)c12 [CBK286808]	88.5
O=C(CC(CN1CCN(c2ccccn2)CC1)C(=O)O)NC1CCCCC1 (centres unmarked) [CBK286812]	87.7
COc1cccc(N2CCN(CC(CC(=O)Nc3ccccc3)C(=O)O)CC2)c1 (centres unmarked) [CBK286813]	89.8
CC(=O)NC(CSc1cc(C)nc2ccc(F)cc12)C(=O)O (centres unmarked) [CBK286815]	91.7
CCOc1ccccc1N1CCN(C(C(=O)O)c2c[nH]c3ccc(CO)cc23)CC1 (centres unmarked) [CBK286816]	90.1
Cc1cc(C(F)(F)F)nn1CCC(=O)Nc1cnn(C)c1C(=O)O [CBK286817]	98.4
COc1cccc(OCC(=O)Nc2ccccc2C(=O)O)c1 [CBK286819]	85.9
Cc1noc(C)c1CN1CCN(CC(CC(=O)Nc2ccc(F)cc2)C(=O)O)CC1 (centres unmarked) [CBK286821]	90.5
C=C(C)CN1CCN(CC(CC(=O)NCc2ccccc2)C(=O)O)CC1 (centres unmarked) [CBK286823]	98.1
O=C(O)C(c1c[nH]c2cc(F)ccc12)N1CCN(CC(=O)N2CCOCC2)CC1 (centres unmarked) [CBK286825]	86.5
CC(c1ccccc1)C(CC(=O)O)C(=O)NCc1ccccc1 (centres unmarked) [CBK286830]	101
COc1ccc(NC(=O)CC(CN2CCN(c3ccc(Cl)cc3)CC2)C(=O)O)cc1 (centres unmarked) [CBK286831]	101
Cc1n[nH]c2nc(-c3cc(Br)ccc3O)cc(C(=O)O)c12 [CBK286834]	105
O=C(O)CN1CCN(c2ncnc3sc4c(c23)CCCC4)CC1 [CBK286836]	99.5
Cc1nn(Cc2c(F)cccc2Cl)c(C)c1NC(=O)CCCC(=O)O [CBK286838]	108
CC(CC(=O)O)CC(=O)N1CCN(c2ccccn2)CC1 (centres unmarked) [CBK286839]	107

SMILES	viability at 28.5 h, 10 µM [%]
O=C(O)[C@@H]1CCN(Cc2ccccc2)C[C@H]1c1ccccc1 [CBK286840]	102
Cc1cc(=O)c(O)c(CN2CCC(C(=O)O)CC2)o1 [CBK286843]	87.6
O=C(CC(CN1CCN(CC(=O)N2CCCC2)CC1)C(=O)O)Nc1ccccc1 (centres unmarked) [CBK286844]	87.9
O=C(O)C(c1c[nH]c2cc(CO)ccc12)N1CCCN(c2ccc(C(F)(F)F)cn2)CC1 (centres unmarked) [CBK286845]	85.3
COc1ccc2[nH]cc(C(C(=O)O)N3CCN(Cc4ccccn4)CC3)c2c1 (centres unmarked) [CBK286846]	80.5
COc1ccc(C2C(C(=O)O)c3ccccc3C(=O)N2C)cc1 (centres unmarked) [CBK286847]	85.8
O=C(O)CC1CCN(c2ccc(C(F)(F)F)cn2)CC1 [CBK286850]	90.4
O=C(O)CCC(=O)N1CCN(Cc2ccc(Cl)cc2)CC1 [CBK286852]	90
O=C(CC(CN1CCN(Cc2cccnc2)CC1)C(=O)O)Nc1ccc(Cl)cc1 (centres unmarked) [CBK286853]	91.5
COc1ccc(NC(=O)CC(CN(C)Cc2ccccc2)C(=O)O)cc1 (centres unmarked) [CBK286854]	93.5
O=C(CC(CN1CCCN(c2ncccn2)CC1)C(=O)O)NCc1ccccc1 (centres unmarked) [CBK286856]	87.2
COc1cccc2c(C(C(=O)O)N3CCN(c4ccc(C(F)(F)F)cn4)CC3)c[nH]c12 (centres unmarked) [CBK286857]	89.7
Cc1noc(C)c1CN1CCN(CC(CC(=O)Nc2ccccc2)C(=O)O)CC1 (centres unmarked) [CBK286858]	83.2
CCn1ncc(Cn2cc(NC(=O)C3CCCCC3C(=O)O)cn2)c1C (centres unmarked) [CBK286859]	98.9
CC(C)C1C2CCCCC2=NN1C(=O)/C=C/C(=O)O (centres unmarked) [CBK286862]	93.1
O=C(O)c1cccc(Nc2nc(Nc3ccccc3)nc(N3CCCC3)n2)c1 [CBK286863]	89.8
CN1CCN(CC(CC(=O)Nc2c(F)cccc2F)C(=O)O)CC1 (centres unmarked) [CBK286867]	92
C[C@@H]1C[C@H](C)CN(C(C(=O)O)c2c[nH]c3ccccc23)C1 (some centres unmarked) [CBK286868]	94.3
CC(C)(O)C#Cc1ccc(C(=O)N2CCCC2C(=O)O)s1 (centres unmarked) [CBK286869]	79.5

Same assay, conditions: human, hela cells, % viability, bulk resorufin, single well

SMILES	viability at 28.5 h, 10 µM [%]
O=C(O)C1C2CCC(O2)C1C(=O)NC1CCCCC1 (centres unmarked) [CBK286848]	85
